Target: T1, MD-2 (myeloid differentiation protein 2) (Homo sapiens, UniProt Q9Y6Y9)
T1 sequence (Q9Y6Y9 19-160): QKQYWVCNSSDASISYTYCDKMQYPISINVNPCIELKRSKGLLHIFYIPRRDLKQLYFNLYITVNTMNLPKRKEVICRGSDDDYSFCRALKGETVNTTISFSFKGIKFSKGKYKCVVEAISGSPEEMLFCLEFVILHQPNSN
Assay: intrinsic fluorescence quenching titration
Assay type: binding

CN[C@@H](C)Cc1ccccc1 [methamphetamine]
Kd: 6.7 ± 0.6 µM

From PMC8316980 (ACS chemical neuroscience, 2019)
